What follows are compounds tested on PC3 cells (assay: PC3 prostate cancer cell proliferation (WST)). Conditions: Homo sapiens, PC-3; 72 hours; read-out: IC50 PC3 Proliferation.
Format: cell-based
Experimental: PC3 cells were obtained from the American Type Culture Collection (ATCC, Manassas, Va., Cat.# CRL-1435) Two thousand cells from the prostate cancer line PC3 were placed in 50 μL of complete RPMI 1640 media (Invitrogen, Carlsbad, Calif., Cat.#22400-105) with 10% fetal bovine serum (Invitrogen, Carlsbad, Calif., Cat.#10438-026) into each well of 96 well cell culture plates in a hexaplicate sampling pattern. A 50 μL aliquot of test compound (prepared from stock test compounds in DMSO diluted into media) was added to the appropriate well such that the final concentrations of test compound were 200, 40, 8, 1.6, 0.32, 0.064, 0.0128, 0.00256, and 0 μM and the final DMSO concentration was less than or equal to 0.2%.
The plates were incubated for 72 hours 37° C. in an atmosphere of 5% CO2. At the end of this time a 10 μL aliquot of WST solution (Roche Applied Science, Mannheim, Germany) was added into each of the wells. Cells were exposed to the WST solution for 4 hours. A SpectraMax Plus spectrophotometric plate reader (Molecular Devices, Sunnydale, Calif.) was then used to measure the optical density at 450 nm (OD450 nm). Sigmoidal curves were drawn for the dose responses and IC50 values were calculated using the software package GraphPad Prism4 (GraphPad Software, Inc., San Diego, Calif.).

SMILES	IC50
O=c1cc(N2CCOCC2)oc2c(-c3ccc4c(c3)OCO4)csc12 [Compound 7]	1.74 µM
CN(C)c1ccc(C(=O)Nc2cccc(-c3csc4c(=O)cc(N5CCOCC5)oc34)c2)cc1 [Compound 49]	3.18 µM
O=C(Nc1ccc(-c2csc3c(=O)cc(N4CCOCC4)oc23)cc1)c1ccccc1 [Compound 34]	2 µM
O=c1cc(N2CCOCC2)oc2c(C#Cc3cccc(F)c3)csc12 [Compound 39]	3.31 µM
O=C(NCc1ccccc1)c1csc2c(=O)cc(N3CCOCC3)oc12 [Compound 53]	113 µM
O=c1cc(N2CCOCC2)oc2c(-c3cccnc3)csc12 [Compound 3, 5-morpholino-3-(pyridin-3-yl)-7H-thieno[3,2-b]pyran-7-one]	10.9 µM
O=C(Nc1cccnc1)c1ccc(-c2csc3c(=O)cc(N4CCOCC4)oc23)cc1 [Compound 58]	16.7 µM
O=C(Nc1ccc(-c2csc3c(=O)cc(N4CCOCC4)oc23)cc1)c1cccnc1 [Compound 55]	1.05 to 1.5 µM
O=c1cc(N2CCOCC2)oc2c(Cc3ccccc3)csc12 [Compound 1]	20.2 µM
O=c1cc(N2CCOCC2)oc2c(C#Cc3ccccc3)csc12 [Compound 31, 5-morpholino-3-(phenylethynyl)-7H-thieno[3,2-b]pyran-7-one]	3.69 µM
O=c1cc(N2CCOCC2)oc2c(-c3ccc4[nH]ccc4c3)csc12 [Compound 19]	8.13 µM
O=C(Nc1cccc(-c2csc3c(=O)cc(N4CCOCC4)oc23)c1)c1cccnc1 [Compound 46]	62.1 µM
O=c1cc(N2CCOCC2)oc2c(-c3ccc(Cl)cc3)csc12 [Compound 17, 3-(4-chlorophenyl)-5-morpholino-7H-thieno[3,2-b]pyran-7-one]	29 µM
O=c1cc(N2CCOCC2)oc2c(-c3cc4ccccc4[nH]3)csc12 [Compound 12]	8.55 µM
O=C(Nc1ccccn1)c1cccc(-c2csc3c(=O)cc(N4CCOCC4)oc23)c1 [Compound 66]	6.91 µM
S=c1cc(N2CCOCC2)oc2c(-c3ccccc3)cccc12 [Compound 68, 2-morpholino-8-phenyl-4H-chromene-4-thione]	34.8 µM
O=c1cc(N2CCOCC2)oc2c(-c3ccoc3)csc12 [Compound 27]	9.26 µM
O=c1cc(N2CCOCC2)oc2c(C#CCO)csc12 [Compound 24]	28.2 µM
O=C(Nc1ccncc1)c1ccc(-c2csc3c(=O)cc(N4CCOCC4)oc23)cc1 [Compound 59]	17.5 µM
O=c1cc(N2CCOCC2)oc2c(-c3ccc4cc[nH]c4c3)csc12 [Compound 35]	2.7 to 5.59 µM
CN(C)c1ccc(NC(=O)c2cccc(-c3csc4c(=O)cc(N5CCOCC5)oc34)c2)cc1 [Compound 65]	12.7 µM

SMILES	IC50
O=C(NCCN1CCOCC1)c1csc2c(=O)cc(N3CCOCC3)oc12 [Compound 90]	19.9 µM
O=C(NCc1ccccc1)c1ccc(-c2csc3c(=O)cc(N4CCOCC4)oc23)cc1 [Compound 50, N-benzyl-4-(5-morpholino-7-oxo-7H-thieno[3,2-b]pyran-3-yl)benzamide]	4.76 µM
O=c1cc(N2CCOCC2)oc2c(-c3cccc(Cl)c3)csc12 [Compound 85, 3-(3-chlorophenyl)-5-morpholino-7H-thieno[3,2-b]pyran-7-one]	3.45 µM
O=c1cc(N2CCOCC2)oc2c(-c3ccc(Br)cc3)csc12 [Compound 101]	21.8 µM
CCN(CC)C(=O)c1csc2c(=O)cc(N3CCOCC3)oc12 [Compound 52]	157 µM
O=c1cc(N2CCOCC2)oc2c(-c3ccc(Cl)c(Cl)c3)csc12 [Compound 18]	37.6 µM
CN1CCOc2cc(-c3csc4c(=O)cc(N5CCOCC5)oc34)ccc21 [Compound 22]	1.05 µM
O=C(O)c1ccc(-c2csc3c(=O)cc(N4CCOCC4)oc23)cc1 [Compound 100]	129 µM
COc1cc(C#Cc2csc3c(=O)cc(N4CCOCC4)oc23)cc(OC)c1 [Compound 40]	1.8 µM
COC(=O)c1cccc(-c2csc3c(=O)cc(N4CCOCC4)oc23)c1 [Compound 45]	4.67 µM
COc1ccc(-c2csc3c(=O)cc(N4CCOCC4)oc23)cc1 [Compound 8]	1.82 µM
COC(=O)c1scc(-c2csc3c(=O)cc(N4CCOCC4)oc23)c1O [Compound 21, methyl 3-hydroxy-4-(5-morpholino-7-oxo-7H-thieno[3,2-b]pyran-3-yl)thiophene-2-carboxylate]	34.8 µM
O=c1cc(N2CCOCC2)oc2c(-c3ccc(O)cc3)csc12 [Compound 98]	6.12 µM
COC(=O)c1ccc(-c2csc3c(=O)cc(N4CCOCC4)oc23)cc1 [Compound 44]	4.39 µM
O=C(NCc1ccc(Cl)cc1)c1csc2c(=O)cc(N3CCOCC3)oc12 [Compound 88]	22 µM
O=C(NCc1ccccc1)c1cccc(-c2csc3c(=O)cc(N4CCOCC4)oc23)c1 [Compound 63]	7.84 µM
CNc1ccc(-c2csc3c(=O)cc(N4CCOCC4)oc23)cc1 [Compound 41]	2.07 µM
O=c1cc(N2CCOCC2)oc2c(-c3ccncc3)csc12 [Compound 2]	18.5 µM
O=c1cc(N2CCOCC2)oc2c(-c3ccc(O)c(Cl)c3)csc12 [Compound 93]	6.14 to 9.43 µM
O=c1cc(N2CCOCC2)oc2c(-c3ccco3)csc12 [Compound 4]	5.9 µM
CN1CCN(c2ncc(-c3csc4c(=O)cc(N5CCOCC5)oc34)cn2)CC1 [Compound 43]	9.35 µM

SMILES	IC50
Cc1ccc(-c2csc3c(=O)cc(N4CCOCC4)oc23)cc1 [Compound 15]	4.48 µM
Cc1cccc(-c2csc3c(=O)cc(N4CCOCC4)oc23)c1 [Compound 16]	6.03 µM
O=c1cc(N2CCOCC2)oc2c(-c3ccc(Cl)nc3)csc12 [Compound 32]	9.01 µM
O=c1cc(N2CCOCC2)oc2c(C#Cc3ccsc3)csc12 [Compound 23]	7.35 µM
COc1cc(-c2csc3c(=O)cc(N4CCOCC4)oc23)ccc1N [Compound 95]	81.9 µM
CN(C)c1ccc(C#Cc2csc3c(=O)cc(N4CCOCC4)oc23)cc1 [Compound 37]	2.5 µM
O=C(Nc1ccccn1)c1ccc(-c2csc3c(=O)cc(N4CCOCC4)oc23)cc1 [Compound 61]	5 µM
O=c1cc(N2CCOCC2)oc2c(-c3cccc(O)c3)csc12 [Compound 99]	16.6 µM
O=C(Nc1ccccc1)c1csc2c(=O)cc(N3CCOCC3)oc12 [Compound 51, 5-morpholino-7-oxo-N-phenyl-7H-thieno[3,2-b]pyran-3-carboxamide]	23.8 µM
O=c1cc(N2CCOCC2)oc2c(-c3ccsc3)csc12 [Compound 26]	5.6 µM
O=c1cc(N2CCOCC2)oc2c(-c3cccs3)csc12 [Compound 14]	4.36 µM
O=C(NCCN1CCOCC1)c1cccc(-c2csc3c(=O)cc(N4CCOCC4)oc23)c1 [Compound 42]	7.84 µM
CN(C(=O)OC(C)(C)C)c1ccc(-c2csc3c(=O)cc(N4CCOCC4)oc23)cc1 [Compound 36]	2.69 µM
COc1cccc(-c2csc3c(=O)cc(N4CCOCC4)oc23)c1 [Compound 29]	4.76 µM
O=c1cc(N2CCOCC2)oc2c(-c3ccc(C(F)(F)F)cc3)csc12 [Compound 20]	774 µM
Nc1cccc(C#Cc2csc3c(=O)cc(N4CCOCC4)oc23)c1 [Compound 96]	24.8 µM
O=c1cc(N2CCOCC2)oc2c(-c3cccc(C(F)(F)F)c3)csc12 [Compound 92]	6.28 µM
O=C(Nc1ccncc1)c1cccc(-c2csc3c(=O)cc(N4CCOCC4)oc23)c1 [Compound 64]	17.9 µM
O=c1cc(C2CCOCC2)oc2c(-c3ccccc3)cccc12 [Compound 67, 8-Phenyl-2-(tetrahydro-2H-pyran-4-yl)-4H-chromen-4-one]	95.8 µM

These compounds were tested on MCF7 breast cancer cells (assay: Mammosphere cancer stem cell inhibition assay). Conditions: 1 μM; first experiment.
Format: cell-based
Experimental: A mammosphere cancer stem cell inhibition assay was set up using literature methods (T. M. Phillips et al. J. Natl. Cancer I. 2006, 98, 1777-1785, “Mammalian target of rapamycin contributes to the acquired apoptotic resistance of human mesothelioma multicellular spheroids”) using a subset of MCF7 breast cancer cells that posses the ability to evade anchorage independent apoptosis. Commercially available MCF7 breast cancer cells were cultured in MEM supplemented with 0.01 mg/mL of bovine insulin and 10% FBS at 37° C. in humidified atmosphere (5% CO2). Floating cells in the 2-day cultures were collected, washed, and resuspended in DMEM-F12 (50:50) supplemented with 0.4% BSA, 5 μg/mL bovine insulin, 20 ng/mL bFGF, and 10 ng/mL EGF. Cells were then passed through a […] sieve to remove any cell clusters and adjusted to a density of 10,000 cells/mL. Approximately 500 cells were plated in quadruplicate in a sterile poly-HEMA-treated 96-well plate. Cells were then treated with either control or test solutions consisting of the kinase inhibitor Lapatinib (1 μM), Cpd 28 (1 or 10 μM), Cpd 55 (1 or 10 μM), The numbers of mammospheres (clusters of cells numbering more than 4 or 5 per cluster) were then counted after 5-7 days.

SMILES	inhibition of mammosphere production versus control
O=C(Nc1ccc(-c2csc3c(=O)cc(N4CCOCC4)oc23)cc1)c1cccnc1 [Compound 55]	approximately 60%

Same assay, conditions: 1 μM; first experiment, control 38±4

SMILES	number of mammospheres
O=C(Nc1ccc(-c2csc3c(=O)cc(N4CCOCC4)oc23)cc1)c1cccnc1 [Compound 55]	16±2 mammospheres

Same assay, conditions: 1 μM; separate experiment

SMILES	inhibition of mammosphere production versus control
CN1CCN(c2ncc(-c3csc4c(=O)cc(N5CCOCC5)oc34)cn2)CC1 [Compound 43]	~53%

Same assay, conditions: 1 μM; separate experiment, control 32±6

SMILES	number of mammospheres
CN1CCN(c2ncc(-c3csc4c(=O)cc(N5CCOCC5)oc34)cn2)CC1 [Compound 43]	18±6 mammospheres

Same assay, conditions: 10 μM; first experiment

SMILES	inhibition of mammosphere production versus control
O=C(Nc1ccc(-c2csc3c(=O)cc(N4CCOCC4)oc23)cc1)c1cccnc1 [Compound 55]	~86%

Same assay, conditions: 10 μM; first experiment, control 38±4

SMILES	number of mammospheres
O=C(Nc1ccc(-c2csc3c(=O)cc(N4CCOCC4)oc23)cc1)c1cccnc1 [Compound 55]	5±1 mammospheres

Same assay, conditions: 10 μM; separate experiment

SMILES	inhibition of mammosphere production versus control
CN1CCN(c2ncc(-c3csc4c(=O)cc(N5CCOCC5)oc34)cn2)CC1 [Compound 43]	~58%

Same assay, conditions: 10 μM; separate experiment, control 32±6

SMILES	number of mammospheres
CN1CCN(c2ncc(-c3csc4c(=O)cc(N5CCOCC5)oc34)cn2)CC1 [Compound 43]	16±6 mammospheres
